Measurements reported in paper PMC3944508, “Six New Tetraprenylated Alkaloids from the South China Sea Gorgonian Echinogorgia pseudossapo” (Marine Drugs, 2014).

Legend:
Type in all cases: biochemical
[1] = biological target: PDE5A (Homo sapiens, UniProt O76074); assay: in vitro PDE inhibition assay, % inhibition at […]; conditions: read-out: Inhibition (%) of Compounds at 50 μM / PDE5A
[2] = biological target: T1, PDE4D (phosphodiesterase-4D) (Homo sapiens, UniProt Q08499); assay: in vitro PDE inhibition assay (previously reported method)
[3] = biological target: T1, PDE4D (phosphodiesterase-4D); assay: in vitro PDE inhibition assay, % inhibition at […]; conditions: read-out: Inhibition (%) of Compounds at 50 μM / PDE4D

T1 sequence (Q08499 whole entry): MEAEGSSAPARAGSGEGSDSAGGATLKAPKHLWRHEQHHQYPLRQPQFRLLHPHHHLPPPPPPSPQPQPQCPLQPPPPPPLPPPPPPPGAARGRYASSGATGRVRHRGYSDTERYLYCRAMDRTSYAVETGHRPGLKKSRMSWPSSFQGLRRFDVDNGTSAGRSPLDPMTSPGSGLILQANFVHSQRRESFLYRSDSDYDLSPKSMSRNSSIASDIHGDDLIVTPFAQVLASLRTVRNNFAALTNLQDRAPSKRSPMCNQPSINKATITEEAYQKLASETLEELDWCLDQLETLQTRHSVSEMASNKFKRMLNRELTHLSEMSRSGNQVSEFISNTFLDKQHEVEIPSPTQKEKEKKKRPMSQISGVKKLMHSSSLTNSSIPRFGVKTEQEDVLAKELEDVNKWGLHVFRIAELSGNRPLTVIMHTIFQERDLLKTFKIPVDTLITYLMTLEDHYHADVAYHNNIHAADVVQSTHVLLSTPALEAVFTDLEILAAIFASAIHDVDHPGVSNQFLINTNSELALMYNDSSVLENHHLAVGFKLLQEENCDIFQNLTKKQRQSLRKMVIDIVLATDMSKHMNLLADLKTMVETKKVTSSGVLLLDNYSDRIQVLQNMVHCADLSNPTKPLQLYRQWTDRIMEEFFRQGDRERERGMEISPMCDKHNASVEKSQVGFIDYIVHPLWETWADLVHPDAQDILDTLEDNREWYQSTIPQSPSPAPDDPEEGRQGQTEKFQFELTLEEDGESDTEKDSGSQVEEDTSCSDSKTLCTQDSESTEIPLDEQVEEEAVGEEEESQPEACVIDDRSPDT

Compound	inhibition at 50 µM [1]	IC50 [2]	inhibition at 50 µM [3]
CC(C)=CC(=O)C/C(C)=C/CC/C(C)=C/CC/C(C)=C/Cn1cnc2c1c(=O)ncn2C [compound 1, malonganenone L]	53%	8.5 µM	
CC(C)=CC(=O)C/C(C)=C\CC/C(C)=C/CC/C(C)=C/Cn1cnc2c1c(=O)ncn2C [compound 2, malonganenone M]			72%
CC(C)=CC(=O)/C=C(\C)CCC/C(C)=C/CC/C(C)=C/Cn1cnc2c1c(=O)ncn2C [compound 3, malonganenone N]			81%

Further lines, results first:

inhibition at 50 µM [1]	IC50 [2]	inhibition at 50 µM [3]	Compound
		79%	CNC(=O)c1c(N(C)C=O)ncn1C/C=C(\C)CC/C=C(\C)CC/C=C(\C)CC(=O)C=C(C)C [compound 4, malonganenone O]
		75%	CNC(=O)c1c(N(C)C=O)ncn1C/C=C(\C)CC/C=C(\C)CC/C=C(/C)CC(=O)C=C(C)C [compound 5, malonganenone P]
	20.3 µM		CNC(=O)c1c(N(C)C=O)ncn1C/C=C(\C)CC/C=C(\C)CCC/C(C)=C\C(=O)C=C(C)C [compound 6, malonganenone Q]
